Experimental data reported in patent publication US9989531B2, “Composition comprising a cell sample from a subject with scoliosis and a reagent for detecting PTPμ or PIPK1y” (Chu Sainte-Justine, priority 2013, dated 2018).

Experiments:
PIPK1γ = target: T1, PIPK1γ (Mus musculus, UniProt O70161); assay: PIPK1γ knockdown by siRNA in osteoblasts, response to somatostatin stimulation (CDS); format: cell-based; conditions: varying concentrations of somatostatin, vs scrb (FIG. 6H)
T1 construct: endogenous in cells; host or cells: primary spine osteoblasts from bipedal C57Bl/6j WT and PTPμ-/- mice
T1 sequence (O70161 whole entry): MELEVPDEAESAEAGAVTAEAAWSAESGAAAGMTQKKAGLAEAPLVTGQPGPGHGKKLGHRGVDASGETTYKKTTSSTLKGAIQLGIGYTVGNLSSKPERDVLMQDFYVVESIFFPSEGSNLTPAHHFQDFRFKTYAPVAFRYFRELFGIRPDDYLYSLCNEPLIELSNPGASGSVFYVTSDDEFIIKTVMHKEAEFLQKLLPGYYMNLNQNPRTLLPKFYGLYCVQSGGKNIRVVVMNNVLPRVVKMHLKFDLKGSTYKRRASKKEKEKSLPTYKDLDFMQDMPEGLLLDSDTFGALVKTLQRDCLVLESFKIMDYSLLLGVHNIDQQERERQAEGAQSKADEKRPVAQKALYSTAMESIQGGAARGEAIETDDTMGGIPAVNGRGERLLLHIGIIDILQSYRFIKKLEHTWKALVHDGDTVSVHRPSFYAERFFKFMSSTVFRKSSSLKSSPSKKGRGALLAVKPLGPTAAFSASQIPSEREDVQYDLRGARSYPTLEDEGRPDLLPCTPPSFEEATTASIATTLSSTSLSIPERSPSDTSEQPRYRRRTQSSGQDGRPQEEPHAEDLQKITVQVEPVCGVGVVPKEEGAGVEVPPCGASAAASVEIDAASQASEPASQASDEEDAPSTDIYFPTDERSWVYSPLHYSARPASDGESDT
Protocol: (§1) The signaling capacity of G proteins was assessed from osteoblast cultures using cellular dielectric spectroscopy (CDS) performed on a CellKey™ apparatus (MDS Sciex, San Francisco, Calif.), as described in Akoume, et al., 2010 and WO 2010/040234, 2010 to Moreau et al. To assess GiPCR cell signaling, specific agonists that bind to GiPCR and regulate Gi proteins were used: Apelin-17, Oxymethazolin and Somatostatin (Som) (Tocris Bioscience, Canada).
(§2) Primary osteoblast cell cultures from C57BI/6j WT and C57B/6j PTPμ^−/− were cultured (as described above). Lipofectamine™ RNAiMAX (Invitrogen) was applied for siRNA transfection according to the manufacturer's instructions. The sequence of RNA oligo used for the knockdown of OPN is ([…] (SEQ ID NO: 25)). The cells were harvested for RNA extraction after 48 hrs. The same procedure was followed for phosphatidylinositol-phosphate kinase type I gamma (PIPK1γ). The sequence of RNA oligo used for the knockdown of PIPK1γ is ([…] (SEQ ID NO: 26)).
To further assess the implication of PIPK1γ in the mechanism of action behind PTPμ deficiency, a SiRNA approach was used to knockdown the expression of PIPK1γ in WT and PTPμ^−/− osteoblasts prior to initiating GiPCR signaling with somatostatin stimulation. Efficiency of siRNA in WT and PTPμ^−/− osteoblasts was confirmed by qPCR and Western blot analysis (FIGS. 6 B and C). […]

GiPCR signaling = assay: Exogenous recombinant OPN treatment of osteoblasts prior to GiPCR stimulation (CDS); format: cell-based, mouse; conditions: WT and PTPμ−/− osteoblasts, varying concentrations of rOPN (FIGS. 4 A-C)
Protocol: as §1
WT and PTPμ^−/− osteoblasts were treated with varying concentrations of exogenous recombinant OPN (rOPN) prior to GiPCR stimulation with agonists identified in FIGS. 4 A-C.

Apelin receptor (APJR) = target: T2, Apelin receptor (APJR) (Mus musculus, UniProt Q9WV08); assay: GiPCR signaling by cellular dielectric spectroscopy (CDS), apelin-17 stimulation of osteoblasts; format: cell-based; conditions: osteoblasts from bipedal WT and PTPμ−/− mice, different concentrations (FIG. 3)
T2 construct: The signaling capacity of G proteins was assessed from osteoblast cultures using cellular dielectric spectroscopy (CDS); endogenous in cells; host or cells: primary spine osteoblasts from bipedal C57Bl/6j WT and PTPμ-/- mice
T2 sequence (Q9WV08 1-377): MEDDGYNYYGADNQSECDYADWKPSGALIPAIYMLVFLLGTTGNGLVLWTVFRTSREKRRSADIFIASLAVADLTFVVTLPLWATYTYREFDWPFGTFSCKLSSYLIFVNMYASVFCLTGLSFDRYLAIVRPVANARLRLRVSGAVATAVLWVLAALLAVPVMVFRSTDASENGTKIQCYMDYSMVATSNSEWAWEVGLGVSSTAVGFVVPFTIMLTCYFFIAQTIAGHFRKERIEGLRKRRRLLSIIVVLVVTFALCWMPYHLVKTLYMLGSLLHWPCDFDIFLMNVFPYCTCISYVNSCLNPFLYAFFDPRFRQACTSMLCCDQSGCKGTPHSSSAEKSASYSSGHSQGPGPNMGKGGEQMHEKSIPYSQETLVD

OPN = target: T3, OPN (Mus musculus, UniProt P10923); assay: OPN knockdown by siRNA in osteoblasts, response to GiPCR stimulation (CDS); format: cell-based; conditions: WT and PTPμ−/− osteoblasts (FIGS. 3 F-H)
T3 construct: endogenous in cells; host or cells: primary spine osteoblasts from bipedal C57Bl/6j WT and PTPμ-/- mice, transfected with OPN siRNA
T3 sequence (P10923 17-294): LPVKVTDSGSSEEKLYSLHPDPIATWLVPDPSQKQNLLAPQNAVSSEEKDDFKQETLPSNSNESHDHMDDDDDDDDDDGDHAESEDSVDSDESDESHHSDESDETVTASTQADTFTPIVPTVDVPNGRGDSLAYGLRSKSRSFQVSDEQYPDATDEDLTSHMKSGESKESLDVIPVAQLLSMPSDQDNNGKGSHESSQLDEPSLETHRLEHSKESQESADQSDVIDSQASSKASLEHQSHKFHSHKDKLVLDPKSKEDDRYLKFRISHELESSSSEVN
Protocol: as §1, §2
To relate these findings to the OPN action, the small interference RNA (siRNA) approach was used to knockdown the expression of OPN in WT and PTPμ^−/− osteoblasts.

[1] = test system: α2 adrenergic receptor (α2-ADR); assay: GiPCR signaling by cellular dielectric spectroscopy (CDS), oxymethazolin stimulation of osteoblasts; format: cell-based, mouse; conditions: osteoblasts from bipedal WT and PTPμ−/− mice, different concentrations (FIG. 3)
Protocol: as §1
To examine the impact of PTPμ deficiency on this defect, osteoblasts from bipedal WT and PTPμ^−/− mice were screened for their response to three GiPCR selective agonists identified in (FIG. 2). In agreement with previous results (Akoume et al Spine 2010), all three compounds evoked typical CDS response profiles of GiPCR in WT osteoblasts. Consistent with Gi coupling for their cognate receptors in these cells, response to each of the three tested compounds was blocked by pre-treatment with PTX (FIGS. 2 A-F). Similar results were obtained with PTPμ^−/− osteoblasts (FIGS. 2 G-L). […] However, in each case, osteoblasts from PTPμ^−/− mice were less responsive than those from WT mice, but EC50 values were similar in both groups (FIGS. 3 A-C).

G αi proteins = assay: Pertussis toxin pre-treatment of osteoblasts before GiPCR agonist stimulation (CDS); format: cell-based, mouse; conditions: osteoblasts from bipedal WT and PTPμ−/− mice; agonists oxymethazolin, somatostatin, apelin-17 (FIG. 2)
Excerpt: Furthermore, Pertussis toxin (PTX) (Sigma Aldrich, Canada) was used to determine if the effect of the agonists was related to G αi proteins.

In the case of “siPIPK1: RNA oligo used for the knockdown of PIPK1γ: CCUCCACAUCGGGAUUGAUAUU (SEQ ID NO: 26) (CCUCCACAUCGGGAUUGAUAUU; listed as RNA, chemistry not given here)”, the “response to somatostatin stimulation after depletion of PIPK1γ” value (PIPK1γ; WT osteoblasts) is reported as “same response” and the “response to somatostatin stimulation after depletion of PIPK1γ” value (PIPK1γ; osteoblasts from PTPμ deficiency mice) is reported as “enhanced response to somatostatin stimulation”.

In the case of “rOPN: exogenous recombinant OPN (osteopontin)”, the “integrated response to GiPCR stimulation” value (GiPCR signaling) is reported as “decrease in the integrated response in a concentration-dependent manner”.

For Apelin-17, the “CDS response to agonist” value (Apelin receptor (APJR)) was “increased response in a concentration-dependent manner”.

“OPN siRNA: RNA oligo used for the knockdown of OPN: CCACAGCCACAAGCAGUCCAGAUUA (SEQ ID NO: 25) (CCACAGCCACAAGCAGUCCAGAUUA; listed as RNA, chemistry not given here)” was tested, and the “response to GiPCR stimulation after deletion of OPN” value (OPN) was “enhanced response to GiPCR stimulation”.

For `Cc1cc(C(C)(C)C)c(O)c(C)c1CC1=NCCN1` [oxymethazoin, Oxymethazolin], the “CDS response to agonist” value [1] was “increased response in a concentration-dependent manner”.

With Pertussis toxin [PTX] the “effect of pre-treatment on Gi coupling of agonists to their cognate receptors” value (G αi proteins) was “blocked the Gi coupling”.
